Data as given in the supplement of paper PMC10307832.

Experiments:
Experiment in all cases: relative viability (nuclei count vs DMSO), 5 days (fraction); higher = more cells survive
Apatinib + Crizotinib = compound: N#CC1(c2ccc(NC(=O)c3cccnc3NCc3ccncc3)cc2)CCCC1 [Apatinib] + C[C@@H](Oc1cc(-c2cnn(C3CCNCC3)c2)cnc1N)c1c(Cl)ccc(F)c1Cl [Crizotinib] (partner 1 µM)
Summary of the method: (§1)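 After 5 days of treatment, lung cancer cells in 1536-well plates were fixed and stained in a single step (final 0.05% Triton X-100, 1% formaldehyde, 1 ug/ml Hoechst) and their nuclei counted on 4× images. Treatment had been applied by pin tool the day after seeding as one drug alone or as a fixed anchor-drug dose with five library-drug doses (not always all listed) in √10 steps. Relative viability is the nuclei count of treated wells divided by that of vehicle wells, and values are medians of duplicate plates.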

Metformin + AZD7762 = compound: CN(C)C(=N)NC(=N)N [Metformin] + NC(=O)Nc1cc(-c2cccc(F)c2)sc1C(=O)N[C@H]1CCCNC1 [AZD7762] (partner 0.2 µM)
Summary of the method: as §1

Apatinib + Decitabine = compound: N#CC1(c2ccc(NC(=O)c3cccnc3NCc3ccncc3)cc2)CCCC1 [Apatinib] + Nc1ncn([C@H]2C[C@H](O)[C@@H](CO)O2)c(=O)n1 [Decitabine] (partner 2 µM)
Summary of the method: as §1

Metformin + Palbociclib = compound: CN(C)C(=N)NC(=N)N [Metformin] + CC(=O)c1c(C)c2cnc(Nc3ccc(N4CCNCC4)cn3)nc2n(C2CCCC2)c1=O [Palbociclib] (partner 0.5 µM)
Summary of the method: as §1

Cell Line | relative viability (Apatinib + Crizotinib; first compound 0.08 µM) | relative viability (Apatinib + Crizotinib; first compound 0.253 µM) | relative viability (Apatinib + Crizotinib; first compound 0.8 µM) | relative viability (Apatinib + Crizotinib; first compound 2.53 µM) | relative viability (Apatinib + Crizotinib; first compound 8 µM) | relative viability (Metformin + AZD7762; first compound 10 µM) | relative viability (Metformin + AZD7762; first compound 31.62 µM) | relative viability (Metformin + AZD7762; first compound 100 µM) | relative viability (Metformin + AZD7762; first compound 316.23 µM) | relative viability (Metformin + AZD7762; first compound 1000 µM) | relative viability (Apatinib + Decitabine; first compound 0.08 µM) | relative viability (Apatinib + Decitabine; first compound 0.253 µM) | relative viability (Apatinib + Decitabine; first compound 0.8 µM) | relative viability (Apatinib + Decitabine; first compound 2.53 µM) | relative viability (Apatinib + Decitabine; first compound 8 µM) | relative viability (Metformin + Palbociclib; first compound 10 µM) | relative viability (Metformin + Palbociclib; first compound 31.62 µM) | relative viability (Metformin + Palbociclib; first compound 100 µM) | relative viability (Metformin + Palbociclib; first compound 316.23 µM) | relative viability (Metformin + Palbociclib; first compound 1000 µM)
Calu-6 | 0.789 | 0.855 | 0.726 | 0.599 | 0.594 |  |  |  |  |  |  |  |  |  |  |  |  |  |  | 
LOU-NH91 | 0.76 | 0.751 | 0.722 | 0.69 | 0.629 | 0.743 | 0.668 | 0.716 | 0.681 | 0.718 | 0.85 | 0.827 | 0.732 | 0.741 | 0.776 | 0.524 | 0.523 | 0.441 | 0.518 | 0.517
CAL-12T | 0.801 | 0.569 | 0.694 | 0.695 | 0.459 | 0.659 | 0.718 | 0.638 | 0.646 | 0.659 |  |  |  |  |  | 0.579 | 0.53 | 0.488 | 0.384 | 0.423
IA-LM | 0.857 | 0.615 | 0.697 | 0.694 | 0.192 |  |  |  |  |  |  |  |  |  |  |  |  |  |  | 
NCI-H1703 | 0.359 | 0.464 | 0.347 | 0.194 | 0.15 | 0.138 | 0.139 | 0.135 | 0.112 | 0.132 |  |  |  |  |  |  |  |  |  | 
BEN | 0.957 | 1 | 0.94 | 0.671 | 0.65 | 1.08 | 1.12 | 0.967 | 0.957 | 0.72 | 0.694 | 0.668 | 0.672 | 0.693 | 0.723 | 0.503 | 0.529 | 0.523 | 0.436 | 0.456
